What is called melting point is the temperature of the solid-liquid transition.

Structures are written as SMILES. Where a name gives a salt, the structure may show the parent alone.

One series deals with other Hsps. In words: Other in vitro HSP modulating effects (Table 3). On the set-up: key: +: co-inducing activity; −: silencing activity; 0: with the experimental methods applied no other HSP modulating effects could be identified. In kind it is cell-based, mouse and human. The procedure:
The Hsp co-inducing effect of the compounds on stress response was tested on B16 mouse melanoma and SHSY5Y human neuroblastoma cell lines stably transfected with Hsp promoter probing plasmids. This kind of promoter probing, using the promoter region of a given gene conjugated with fluorescent protein is used as a best and fastest test system for finding drugs which modulate the activity of the gene followed by the given promoter (Wyshocka et al., Mol. Cel. Biochem. 215:153-156, 2000).
Reporter plasmids, containing the Hsp70 and/or Hsp25 promoter conjugated to either YFP or GFP (yellow or green fluorescent protein), were stably transfected into the cells and the expression of YFP or GFP was followed by flow cytometry. Cells were either kept at 37° C. or exposed to heat shock at 42° C. for 1 hour followed by a 16 hour recovery period at 37° C. in the presence or absence of different concentrations of the test compound. After recovery the expression of YFP or GFP which is in straight correlation with the promoter activity of Hsp70 or Hsp27 genes was followed by measuring the fluorescence intensity of the cells by flow cytometry. Fluorescence intensity is in straight correlation with the amount of fluorescent protein (GFP or YFP) produced under the control of hsp promoter. The mean fluorescence intensity of YFP or GFP produced is shown as “Hsp promoter activity”.
Cells were homogenously distributed on 6-well plates in 1×10^5 cells/well density. B16-pHsp25-GFP and B16-pHsp70-YFP melanoma cells were grown in RPMI-1640 medium supplemented with 10% Fetal bovine serum (FBS), penicillin (200 units/ml), streptomycin (200 μg/ml) and 2 mM L-Glutamine. For maintaining the SH-SY5Y-pHsp25-GFP and SH-SY5YpHsp70-YFP neuroblastoma cell lines Dulbecco's modified Eagle's medium (DMEM-F-12) containing 10% FBS, 2 mM L-Glutamine, penicillin (200 units/ml), streptomycin (200 μg/ml) and MEM non-essential amino acids were used. Before the treatments both cell lines were incubated at 37° C. in a saturated humidity atmosphere containing 95% air and 5% CO2. After 24 h incubation cells were pretreated with compounds of the invention in four different concentrations (usually in 3; 10; 20 and 50 μM) 30 min before the heat shock at 42° C. for 1 h and then incubated further at 37° C. for 16 h (recovery period). After this procedure cells were trypsinized and suspensed in 500 μl serum-free DMEM-F12 medium. The changes in cells' fluorescence were detected using BD FACSCalibur flow cytometer.
SY-SY5Y and B16 cells were extracted in NP-40 lysis buffer (PBS pH 7.4, 1% protease inhibitor coctail and 1% Triton X-100). The cell extracts were then constantly agitated at 4° C. for 2 h. The cell extracts were centrifuged at 12000×g for 30 min and supernatants were saved. After the protein concentration measurement 15 μg of total protein was separated by sodium dodecyl sulfate-polyacrylamide gel electrophoresis (SDS-PAGE) under reducing conditions according to the method of Laemmli. Proteins were blotted onto PVDF membrane. The blot was incubated overnight at 4° C. in the presence of mouse α-Hsp25, α-Hsp70, α-Hsp60 és α-Hsp90 monoclonal antibodies diluted in PBS. Then, the membrane was washed three times in PBS-0.05% Tween and incubated for 1 h in peroxidase-conjugated anti-mouse IgG antibody diluted 1:50000 in PBS containing 3% non-fat dry milk. The immune complexes were detected with chemo-luminescent substrate of peroxidase according to the supplier's instructions. Images taken from the membranes were analyzed using AlphaEase FC software.
For the compound `COC(=O)C1=C(C)N(C)C(C)=C(C(=O)OC)C1c1ccc(Cl)cc1` [Example 4, Dimethyl 1,2,6-trimethyl-4-(4-chlorophenyl)-1,4-dihydropyridine-3,5-dicarboxylate], the “Other in vitro effects” value is 0.
For the compound `COC(=O)C1=C(C)N(C)C(C)=C(C(=O)OC)C1c1ccc(OC)cc1` [Example 6, Dimethyl 1,2,6-trimethyl-4-(4-methoxyphenyl)-1,4-dihydropyridine-3,5-dicarboxylate], the “Other in vitro effects” value amounted to 0.
With `COC(=O)C1=C(CCN2CCN(C)CC2)N(C)C(CCN2CCN(C)CC2)=C(C(=O)OC)C1c1ccc(C(F)(F)F)cc1` [Example 16, Dimethyl 1-methyl-2,6-bis-[2-(4-methyl-piperazin-1-yl)-ethyl]-4-(4-trifluoromethylphenyl)-1,4-dihydropyridine-3,5-dicarboxylate hydrochloride], the “Other in vitro effects” value is given as 0.
Consider `COC(=O)C1=C(C)N(C)C(CN2CCc3ccccc3C2)=C(C(=O)OC)C1c1ccc(C(F)(F)F)cc1.Cl` (centres unmarked) [Example 49, Dimethyl 2-(1,2,3,4-tetrahydro-1H-isoquinolin-2-ylmethyl)-1,6-dimethyl-4-(4-trifluoromethylphenyl)-1,4-dihydropyridine-3,5-dicarboxylate hydrochloride], for which the “Other in vitro effects” value came to 0.

Test system in a further series: not given
Assay: not given
`COC(=O)C1=C(C)N(C)C(CCN2CCCC2)=C(C(=O)OC)C1c1ccc(C(F)(F)F)cc1.Cl` (centres unmarked): the melting point lay within 218 to 219 °C.
Still for that read-out and setting: the value for `COC(=O)C1=C(C)N(C)C(CCN2CCOCC2)=C(C(=O)OC)C1c1ccc(C(F)(F)F)cc1.Cl` (centres unmarked) was 188 to 193 °C.
Compound `COC(=O)C1=C(C)N(C)C(CCN2CCOCC2)=C(C(=O)OC)C1c1ccccc1Cl.Cl` (centres unmarked) yielded a melting point of 171 to 173 °C.
As for `COC(=O)C1=C(C)N(C)C(CCN2CCc3ccccc3CC2)=C(C(=O)OC)C1c1ccc(C(F)(F)F)cc1.O=C(O)/C=C/C(=O)O` (centres unmarked), the melting point was 202 to 203 °C.
In turn, `COC(=O)C1=C(C)N(C)C(CN2CCCC2)=C(C(=O)OC)C1c1ccc(C(F)(F)F)cc1.Cl` (centres unmarked) yielded a melting point of 182 to 185 °C.
The same measure, in the same setting: then `COC(=O)C1=C(C)N(C)C(CN2CCCCC2)=C(C(=O)OC)C1c1ccc(C(F)(F)F)cc1.Cl` (centres unmarked), with 190 to 192 °C; and `COC(=O)C1=C(C#N)N(C)C(CN2CCCC2)=C(C(=O)OC)C1c1ccc(C(F)(F)F)cc1.Cl` (centres unmarked), with 173 to 175 °C; and `COC(=O)C1=C(C#N)N(C)C(CCN(C)C)=C(C(=O)OC)C1c1ccc(C(F)(F)F)cc1.Cl` (centres unmarked), with 215 to 216 °C.
Take `COC(=O)C1=C(CCN2CCN(C)CC2)N(C)C(CCN2CCN(C)CC2)=C(C(=O)OC)C1c1ccccc1Cl` (as salt: hydrochloride): the melting point was in the range of 210 to 215 °C.
With `COC(=O)C1=C(CCN2CCN(C)CC2)N(C)C(CCN2CCN(C)CC2)=C(C(=O)OC)C1c1ccc(C(F)(F)F)cc1` (as salt: hydrochloride) [Example 16, Dimethyl 1-methyl-2,6-bis-[2-(4-methyl-piperazin-1-yl)-ethyl]-4-(4-trifluoromethylphenyl)-1,4-dihydropyridine-3,5-dicarboxylate hydrochloride], the melting point lay within 195 to 200 °C.
As to `COC(=O)C1=C(CCN2CCCC2)N(C)C(CCN2CCCC2)=C(C(=O)OC)C1c1ccccc1Cl` (as salt: hydrochloride) [Example 19, Dimethyl 4-(2-chlorophenyl)-1-methyl-2,6-bis-(2-pyrrolidin-1-yl-ethyl)-1,4-dihydropyridine-3,5-dicarboxylate dihydrochloride], the melting point fell in the range of 188 to 193 °C.
For the compound `COC(=O)C1=C(CCN(C)C)N(C)C(CCN(C)C)=C(C(=O)OC)C1c1ccccc1Cl` (as salt: hydrochloride) [Example 22, Dimethyl 4-(2-chorophenyl)-2,6-bis-(2-dimethylaminoethyl)-1-methyl-1,4-dihydropyridine-3,5-dicarboxylate dihydrochloride], the melting point is 241 to 245 °C.
As to `COC(=O)C1=C(CCN(C)C)N(C)C(CCN(C)C)=C(C(=O)OC)C1c1cc(F)cc(F)c1` (as salt: hydrochloride) [Example 25, Dimethyl 4-(3,5-Difluorophenyl)-2,6-bis-(2-dimethylaminoethyl)-1-methyl-1,4-dihydropyridine-3,5-dicarboxylate dihydrochloride], the melting point lay within 261 to 265 °C.
As to `COC(=O)C1=C(CCN(C)C)N(C)C(CCN2CCCCC2)=C(C(=O)OC)C1c1ccc(C(F)(F)F)cc1` (centres unmarked) (as salt: hydrochloride) [Example 30, Dimethyl 2-(2-dimethylamino-ethyl)-1-methyl-6-(2-piperidin-1-yl-ethyl)-4-(4-trifluoromethylphenyl)-1,4-dihydropyridine-3,5-dicarboxylate dihydrochloride], the melting point lay in the range of 247 to 249 °C.
Compound `COC(=O)C1=C(CCN(C)C)N(C)C(CCN2CCOCC2)=C(C(=O)OC)C1c1ccc(C(F)(F)F)cc1` (centres unmarked) (as salt: hydrochloride) [Example 31, Dimethyl 2-(2-dimethylamino-ethyl)-1-methyl-6-(2-morpholin-1-yl-ethyl)-4-(4-trifluoromethylphenyl)-1,4-dihydropyridine-3,5-dicarboxylate dihydrochloride] came in with a melting point of 247 to 248 °C.
For `COC(=O)C1=C(CCN(C)C)N(C)C(CCN2CCc3cc(OC)c(OC)cc3C2)=C(C(=O)OC)C1c1ccc(C(F)(F)F)cc1` (centres unmarked) (as salt: hydrochloride) [Example 42, Dimethyl 2-[2-(6,7-dimethoxy-1,2,3,4-tetrahydroisoquinolin-2-yl)-ethyl]-6-(2-dimethylamino-ethyl)-1-methyl-4-(4-trifluoromethylphenyl)-1,4-dihydropyridine-3,5-dicarboxylate dihydrochloride], the melting point lay in the range of 210 to 211 °C.
Regarding `COC(=O)C1=C(C)N(C)C(C)=C(C(=O)OC)C1c1ccc(Cl)cc1` [Example 4, Dimethyl 1,2,6-trimethyl-4-(4-chlorophenyl)-1,4-dihydropyridine-3,5-dicarboxylate], the melting point was in the range of 179 to 180 °C.
Compound `COC(=O)C1=C(C)N(C)C(C)=C(C(=O)OC)C1c1ccc(C)cc1` [Example 5, Dimethyl 1,2,6-trimethyl-4-(4-methylphenyl)-1,4-dihydropyridine-3,5-dicarboxylate] displayed a melting point of 176 to 178 °C.
On the same count and under the same terms, then `COC(=O)C1=C(C)N(C)C(C)=C(C(=O)OC)C1c1ccc(OC)cc1` [Example 6, Dimethyl 1,2,6-trimethyl-4-(4-methoxyphenyl)-1,4-dihydropyridine-3,5-dicarboxylate], with 163 to 164 °C; and `COC(=O)C1=C(C)N(C)C(C)=C(C(=O)OC)C1c1ccccc1Cl` [Example 18, Dimethyl 4-(2-chlorophenyl)-1,2,6-trimethyl-1,4-dihydropyridine-3,5-dicarboxylate], with 154 to 155 °C; and `COC(=O)C1=C(C)N(C)C(C)=C(C(=O)OC(C)C)C1c1ccc(C(F)(F)F)cc1` (centres unmarked) [Example 28, 1,2,6-Trimethyl-4-(4-trifluoromethylphenyl)-1,4-dihydropyridine-3,5-dicarboxylic acid 3-isopropyl ester 5-methyl ester], with 92 to 94 °C.
Turning to `COC(=O)C1=C(C)N(C)C(C)=C(C(=O)OC(C)(C)C)C1c1ccc(C(F)(F)F)cc1` (centres unmarked) [Example 29, 1,2,6-Trimethyl-4-(4-trifluoromethylphenyl)-1,4-dihydropyridine-3,5-dicarboxylic acid 3-tert-butyl ester 5-methyl ester], the melting point is 128 to 130 °C.
For `COC(=O)C1=C(C)N(C)C(C)=C(C(=O)O)C1c1ccc(C(F)(F)F)cc1` (centres unmarked) [Example 35, 1,2,6-Trimethyl-4-(4-trifluoromethylphenyl)-1,4-dihydropyridine-3,5-dicarboxylic acid monomethyl ester], the melting point fell in the range of 150 to 155 °C.
Same read-out and setting: the value for `CC1=C(C(=O)O)C(c2ccc(C(F)(F)F)cc2)C(C(=O)O)=C(C)N1C` [Example 36, 1,2,6-Trimethyl-4-(4-trifluoromethylphenyl)-1,4-dihydropyridine-3,5-dicarboxylic acid] was 152 to 153 °C.
On to `COC(=O)C1=C(C)N(C)C(CN2CCc3ccccc3C2)=C(C(=O)OC)C1c1ccc(C(F)(F)F)cc1.Cl` (centres unmarked) [Example 49, Dimethyl 2-(1,2,3,4-tetrahydro-1H-isoquinolin-2-ylmethyl)-1,6-dimethyl-4-(4-trifluoromethylphenyl)-1,4-dihydropyridine-3,5-dicarboxylate hydrochloride], for which the melting point lay in the range of 175 to 177 °C.

Source of the values: patent US10660789B2, “1,4-dihydropyridine derivatives with HSP modulating activity” (Richter Gedeon NYRT., priority 2011, dated 2020).
